Measured values as given in US4981872A, “Prostaglandin derivatives, their preparation and their therapeutic use” (Sankyo Company Limited, priority 1987, dated 1991).
Values after ≈ are worked out from the molar mass of the structure shown.

Tests used:
[1] = system: blood platelet aggregation; assay: Inhibition of blood platelet aggregation in vitro (adenosine diphosphate-induced, Born's method); format: cell-based, Japanese white rabbit; conditions: Oryctolagus cuniculus, rabbit PRP/PPP mixture, ADP 5μM
Protocol: Inhibition of blood platelet aggregation in vitro
One part by volume of blood from a Japanese white rabbit was mixed immediately after removal with one tenth of its volume of a 3.8% w/v aqueous solution of sodium citrate. The mixture was then centrifuged at 95×G for 15 minutes at room temperature to obtain a platelet-rich plasma (PRP) as the upper layer. The remaining blood sample was then centrifuged for a further 15 minutes at 1000×G to obtain a platelet poor plasma (PPP). By mixing appropriate amounts of the PRP and the PPP, the final platelet count of the mixture was adjusted to 6×105 per μ, platelet aggregation was determined by Born's method [G. V. R. Born: J. Physiol. 62, 67-68 (1962)] by increases in transparency of the test liquid using a platelet aggregometer 25 μl of a solution of the test compound were added to 250 μof the mixture of PRP and PPP and then two minutes after mixing the solutions 25 μl of a liquid containing adenosine diphosphate at a concentration of 5μM were added.
The inhibition of platelet aggregation was assessed by comparing the increase in the amount of light transmitted through the test sample treated platelet-rich plasma with a control platelet-rich plasma which had been treated in the same way, except that the test compound was replaced by physiological saline.

[2] = system: ethanol-induced gastric ulcers; assay: Effects on ethanol-induced gastric ulcers (inhibition of gastric mucosal lesions, oral); format: in vivo, male rats of the Sprague-Dawley strain; conditions: p.o., 1 hour before 1 ml absolute ethanol, rat, ID50 of gastric mucosal lesions, read-out: Anti-ulcer activity (ID50, p.o.)
Protocol: Effects on ethanol-induced qastric ulcers
The test animals used were male rats of the Sprague-Dawley strain each having a body weiqht of about 180-200 g, prior to use in this experiment they were starved for about 42 hours. At the end of this time, each animal was orally administered one of the test compounds shown in the following Table 3. in which the compounds are identified by the number of the foregoing Example in which they were prepared. One hour after administration, gastric mucosal lesions were induced by the oral administration of 1 ml of absolute ethanol. One hour after this administration, the animals were sacrificed with dry ice, and their stomachs were removed and fixed with formalin. The area (mm^2) of the mucosal lesions induced on the gastric mucosa by the ethanol was measured by a video image processor and the inhibition of gastric mucosal lesions by each test compound was calculated in terms of the ID50, by comparison with the results achieved from control animals which had been treated as described above, except that no anti ulcer compound was administered and from the results achieved from the test compounds at various levels of administration.
As a control, there was used the following prior art 6-oxo compound (ORNOPROSTIL): [drawing 12]

IC50 [1] | SMILES | ED50 [2]
> 10 µg/mL | COC(=O)CCC(=O)CCC[C@H]1C(=O)C[C@@H](O)[C@@H]1/C=C/[C@@H](O)COc1ccccc1 [Ex. 30, Methyl 4,9-dioxo-11α,15α-dihydroxy-16-phenoxy17,18,19,20-tetranprprost 13(E)-enoate] | 3.7 µg/kg
> 10 µg/mL | COC(=O)CCCC(=O)CC[C@H]1C(=O)C[C@@H](O)[C@@H]1/C=C/[C@@H](O)COc1ccc(Cl)cc1 [Ex. 11, 5-Oxo-16-p-chlorophenoxy-17,18,19,20-tetranorprostaglandin E1 methyl ester] | 0.49 µg/kg
> 10 µg/mL | CCCCC(C)(C)[C@H](O)/C=C/[C@H]1[C@H](O)CC(=O)[C@@H]1CCCC(=O)CCC(=O)OC [Ex. 31, Methyl 4,9-dioxo-11α,15α-dihydroxy-16,16-dimethylprost 13(E) enoate] | 4.91 µg/kg

The next lines start with the molecule.

SMILES | IC50 [1] | ED50 [2]
COC(=O)CCCC(=O)CC[C@H]1C(=O)C[C@@H](O)[C@@H]1/C=C/[C@@H](O)COc1ccccc1 [Ex. 1, 5-Oxo-16-phenoxy-17,18,19,20-tetranorprostaglandin E1 methyl ester] | > 10 µg/mL | 2.94 µg/kg
CCCC[C@H](C)C[C@H](O)/C=C/[C@H]1[C@H](O)CC(=O)[C@@H]1CC(=O)CCCCC(=O)OC [Control, reference compound] | 0.0019 µg/mL (≈ 0.00463 µM) | 0.2 µg/kg
